Measurements reported in patent US20090093420A1, “PROCESSES FOR THE PREPARATION OF AZITHROMYCIN” (WOCKHARDT LIMITED, priority 2006, published 2009).

Key:
[1] = accelerated stability study of anhydrous azithromycin, storage at 40±2° C. at 75±5% relative humidity; type: physicochemical
[2] = stability study of anhydrous azithromycin, normal storage at 25±2° C. at 60±5% relative humidity; type: physicochemical
[3] = after 3 months of storage at 40±2° C. at 75±5% relative humidity
[4] = after 12 months of storage at 25±2° C. at 60±5% relative humidity

time for which the form is stable ([1]; accelerated stability studies): more than 3 months | moisture content after storage [1, 3]: ≤ 0.6% | purity by HPLC after storage [1, 3]: more than 98% | change in the related substance content on storage ([1]; stored at 40±2° C. at 75±5% relative humidity): no change | moisture content after storage [2, 4]: ≤ 0.6% | purity by HPLC after storage [2, 4]: more than 99% | time for which the form is stable ([2]; normal stability studies): more than 18 months | change in the related substance content on storage ([2]; stored at 25±2° C. at 60±5% relative humidity): no change
Compound: CCC1OC(=O)C(C)C(O[C@H]2C[C@@](C)(OC)[C@@H](O)C(C)O2)C(C)[C@@H](OC2OC(C)CC(N(C)C)[C@H]2O)[C@@](C)(O)C[C@@H](C)CN(C)[C@H](C)[C@@H](O)[C@]1(C)O (stereo partly drawn) [anhydrous azithromycin, (2R,3S,4R,5R,5R,10R,11R,12S,13S,14R)-13-[(2,6-dideoxy-3-C-methyl-3-O-methyl-a-L-ribo-hexopyranosyl)oxy]-2-ethyl-3,4,10-trihydroxy-3,5,6,8,10,12,14-heptamethyl-11-[[3,4,6-trideoxy-3-(dimethylamino)-b-D-xylo-hexopyranosyl]oxy]-1-oxa-6-azacyclopentadecan-15-one]
